Results published in patent US20250281489A1, “BIOMARKERS FOR PREDICTING SENSITIVITY TO CANCER TREATMENTS” (Genentech, Inc., priority 2011, published 2025).
Blank lines part the entries; values can stand above or below the molecule they belong to.

Columns and labels:
pGSK-3β = assay: surrogate PD biomarker assay: phospho-GSK-3β in platelet rich plasma of patients; assay type: in vivo, human; settings: doses≥200 mg, ratio to pre-dose
Protocol: Phospho-GSK-3b in Platelet rich plasma (PRP) was used as a surrogate PD biomarker to measure Akt pathway inhibition in patients after treatment with GDC-0068 at different time points over 22 days. Peripheral blood was collected in Vacutainer containing 0.38% of citrate as anti-coagulant. Blood was spun at 200 g for 15 min at room temperature. The PRP layer was carefully taken from the tube and then lysed in a buffer containing detergents, protease and phosphatase inhibitors. Phosphorylated and total GSK-3β levels in PRP lysates were measured using a phospho-GSK3β/total-GSK30 multiplexed MSD assay. pGSk-3β levels were normalized to total GSk-3β levels and post-dose inhibition of pGSk-3β was expressed as a ratio of the pre-dose levels for each patient.

pPRAS40 = assay: reverse phase protein arrays of tumor biopsies from patients: pPRAS40; assay type: in vivo, human; settings: all 3 patients treated at 400 mg daily
Protocol: (§1) Core-needle tumor biopsies from patients treated with GDCC0068 were flash-frozen in OCT and sectioned into 8 um slices. Tissue was lysed in RPPA lysis buffer containing TPER, 300 mM NaCl and phosphatase inhibitors. Phosphoprotein signatures of the lysates were analysed using Reverse-Phase protein arrays: samples were printed on nitrocellulose slides and stained with Sypro to determine total protein concentrations. Each slide was stained with a different antibody at 4° C. overnight. The data was then normalized to total protein levels and spatial effects were removed using Quadrant median normalization. Decreases of 60%-70% in pPRAS40 and ˜50% decrease in Cyclin D1 (compared with baseline) occurred in all 3 patients treated at 400 mg daily. For methods and overview of RPPA see: Reverse phase protein microarrays advance to use in clinical trials, Molecular Oncology. 2010 December; 4(6):461-81, Mueller C et al. In certain embodiments, the cancer to be treated herein comprises one or more of AKT, PI3k, PTEN and HER2 mutations or AKT, PI3k, PTEN or HER2 abberant signaling. In one example, the cancer is gastric cancer comprising high pAKT activity and PTEN low or null status.

Cyclin D1 = assay: reverse phase protein arrays of tumor biopsies from patients: Cyclin D1; assay type: in vivo, human; settings: all 3 patients treated at 400 mg daily
Protocol: as §1

xenograft models = assay: single agent activity in xenograft models; assay type: in vivo; settings: models with AKT pathway activation and without MEK pathway activation
[1] = tested on: cell lines with AKT pathway activation (PTEN loss, PI3K mutations); assay: combination with MEK inhibitor in cell lines, BLISS analysis; assay type: cell-based; settings: in combination with a MEK inhibitor (GDC-0973)
Description: BLISS analysis indicates broad synergy for GDC-0068 in combination with a MEK inhibitor (GDC-0973).

[2] = combo screens with 5FU/Cisplatin; assay type: cell-based; settings: combination with Cisplatin+5FU; associated with PTEN, pAKT, PI3K mutation
Description: FIG. 15 depicts results that the combination effects of GDC-0068 with Cisplatin+5FU are associated with AKT pathway activation.

[3] = tested on: mutant AKT1 enzymes (E17K, L52R and D323H); assay: biochemical activity assay, recombinant full-length mutant AKT1 enzymes; settings: in words
Description: (§2) Several ATP-competitive and allosteric small molecule inhibitors of AKT are in development and/or clinical trials (Mattmann et al., (2011). Expert Opin Ther Pat.; Pal et al., (2010). Expert Opin Investig Drugs 19, 1355-1366). Previous studies have shown that allosteric inhibitors of AKT require the presence of an intact PH-KD interface for their activity. Given that some AKT1 somatic mutants have impaired PH-KD contacts, it was predicted that allosteric inhibitors are likely to be less efficacious in inhibiting the activity of these mutants.

WT AKT1 enzyme = target: T1, WT AKT1 enzyme (Homo sapiens, UniProt P31749); assay: biochemical activity assay, recombinant full-length WT AKT1 enzyme; settings: in words
T1 construct: were tested on recombinant full-length WT and mutant AKT1 enzymes
Description: Several ATP-competitive and allosteric small molecule inhibitors of AKT are in development and/or clinical trials (Mattmann et al., (2011). Expert Opin Ther Pat.; Pal et al., (2010). Expert Opin Investig Drugs 19, 1355-1366).

AKT1 kinase domain alone = target: T2, AKT1 kinase domain alone (Homo sapiens, UniProt P31749); assay: in vitro biochemical assay, AKT1 kinase domain alone; settings: purified recombinant kinase domain, no PH domain
T2 construct: using purified recombinant PH and kinase domains
Protocol: (§3) To confirm that the reduced sensitivity of the mutants to allosteric inhibitors was due to the impaired PH-KD interactions, an in vitro biochemical reconstitution assay was performed using purified recombinant PH and kinase domains.

[4] = tested on: AKT1 kinase domain reconstituted with WT PH domain; assay: in vitro biochemical reconstitution assay, WT PH domain added to kinase domain
Protocol: as §3

[5] = target: T3, WT PH domain reconstituted with mutant D323H kinase domain (Homo sapiens, UniProt P31749, D323H); assay: in vitro biochemical reconstitution assay, WT PH domain with D323H kinase domain; settings: in words
T3 construct: using purified recombinant PH and kinase domains
Protocol: as §3

[6] = tested on: NIH3T3 cells expressing WT or AKT1 mutants; assay: cell based proliferation assay, NIH3T3 cells expressing WT or AKT1 mutants
Description: as §2

T2 sequence (P31749 150-408 limits assumed): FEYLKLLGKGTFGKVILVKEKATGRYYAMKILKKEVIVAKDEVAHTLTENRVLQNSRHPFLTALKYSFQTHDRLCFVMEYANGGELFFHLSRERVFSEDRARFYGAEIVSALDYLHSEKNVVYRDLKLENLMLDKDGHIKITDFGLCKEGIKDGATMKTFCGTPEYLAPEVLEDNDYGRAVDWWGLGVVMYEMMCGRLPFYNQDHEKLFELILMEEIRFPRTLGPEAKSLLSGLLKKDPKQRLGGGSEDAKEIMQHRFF
T3 sequence (P31749 150-408 D323H limits assumed): as the sequence (P31749 150-408 limits assumed) above, with D174H counted along it
T1 sequence (P31749 whole entry): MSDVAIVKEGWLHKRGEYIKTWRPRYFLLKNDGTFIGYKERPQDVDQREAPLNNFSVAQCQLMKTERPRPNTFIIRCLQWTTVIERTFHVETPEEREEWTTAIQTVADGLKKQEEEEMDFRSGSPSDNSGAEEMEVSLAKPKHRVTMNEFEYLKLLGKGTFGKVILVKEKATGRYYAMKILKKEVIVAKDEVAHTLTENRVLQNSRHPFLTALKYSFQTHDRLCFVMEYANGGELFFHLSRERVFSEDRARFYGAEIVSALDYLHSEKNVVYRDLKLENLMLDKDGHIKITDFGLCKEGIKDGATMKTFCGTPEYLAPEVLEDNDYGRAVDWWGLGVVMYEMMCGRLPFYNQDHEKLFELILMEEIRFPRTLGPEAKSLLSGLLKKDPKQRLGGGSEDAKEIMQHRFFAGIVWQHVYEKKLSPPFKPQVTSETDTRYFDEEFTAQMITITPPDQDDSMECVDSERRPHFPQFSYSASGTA

SMILES: CC(C)NC[C@@H](C(=O)N1CCN(c2ncnc3c2[C@H](C)C[C@H]3O)CC1)c1ccc(Cl)cc1 [GDC-0068]
decrease in pGSK3β level (pGSK-3β): ≥ 75%
decrease in pPRAS40 compared with baseline (pPRAS40): 60%-70%
decrease in Cyclin D1 compared with baseline (Cyclin D1): ~50%
single agent efficacy in xenograft models (xenograft models): Robust efficacy
combination effect, BLISS analysis [1]: broad synergy
combination effect [2]: additive effects

effectiveness against recombinant full-length mutant enzymes compared to WT AKT1 [3]: less effective
SMILES: NC(=O)[C@@H]1CCCCN1CCCN(C(=O)c1cccs1)c1nc(-c2ccncc2)cs1 [GNE-929]

blocking the activity of the WT AKT1 enzyme (WT AKT1 enzyme): effective
blocking the activity of the mutant enzymes ([3]; E17K, L52R and D323H): effective
SMILES: CCn1c(-c2nonc2N)nc2c(C#CC(C)(C)O)ncc(OC[C@H]3CCCNC3)c21 [GSK690693]

SMILES: O=c1[nH]c2ccccc2n1C1CCN(Cc2ccc(-c3nc4cc5[nH]cnc5cc4nc3-c3ccccc3)cc2)CC1 [Inhibitor VIII]
blocking activity of AKT1 kinase domain alone (AKT1 kinase domain alone): unable to block its activity
increase in IC50 for the reconstituted enzyme compared to the full length WT enzyme [4]: three fold
IC50 ([4]; reconstituted enzyme, WT PH domain + kinase domain): 239 nM
activity when WT PH domain was reconstituted with mutant D323H kinase domain [5]: no activity
less effective at blocking proliferation of cells expressing mutant AKT1 compared to WT AKT [6]: at least 50%
